≈ marks a conversion by molar mass, not a printed value.
How the values were obtained:
Assay in all cases: Liquid broth MIC in Fastidious broth
[1] = test system: N. gonorrhoeae WHO L; conditions: Neisseria gonorrhoeae, read-out: Minimum Inhibitory Concentration, WHO L
[2] = test system: N. gonorrhoeae ATCC 49226; conditions: Neisseria gonorrhoeae, ATCC49226, read-out: Minimum Inhibitory Concentration, ATCC 49226
[3] = test system: N. gonorrhoeae WHO K; conditions: Neisseria gonorrhoeae, read-out: Minimum Inhibitory Concentration, WHO K
[4] = test system: N. gonorrhoeae WHO Z; conditions: Neisseria gonorrhoeae, read-out: Minimum Inhibitory Concentration, WHO Z

SMILES | MIC [1] | MIC [2] | MIC [3] | MIC [4]
O=C(NCCCS(=O)(=O)N1CCN(C(=O)NC(C(=O)N[C@H]2Cc3ccc(F)c(C(=O)O)c3OB2O)c2cc(F)c(O)c(O)c2Cl)C1=O)Nc1cccc(O)c1 (stereo partly drawn) [Example 277, (3R)-3-(2-(2-chloro-5-fluoro-3,4-dihydroxyphenyl)-2-(3-((3-(3-(3-hydroxyphenyl)ureido)propyl)sulfonyl)-2-oxoimidazolidine-1-carboxamido)acetamido)-7-fluoro-2-hydroxy-3,4-dihydro-2H-benzo[e][1,2]oxaborinine-8-carboxylic acid] | > 64 mg/L | 16 to 32 mg/L (≈ 19.7 to 39.5 µM) | > 64 mg/L | 16 to 32 mg/L (≈ 19.7 to 39.5 µM)
O=C(NCCCS(=O)(=O)N1CCN(C(=O)NC(C(=O)N[C@H]2Cc3ccc(F)c(C(=O)O)c3OB2O)c2cc(F)c(O)c(O)c2Cl)C1=O)Nc1cccnc1 (stereo partly drawn) [Example 278, (3R)-3-(2-(2-chloro-5-fluoro-3,4-dihydroxyphenyl)-2-(2-oxo-3-((3-(3-(pyridin-3-yl)ureido)propyl)sulfonyl)imidazolidine-1-carboxamido)acetamido)-7-fluoro-2-hydroxy-3,4-dihydro-2H-benzo[e][1,2]oxaborinine-8-carboxylic acid] | > 64 mg/L | 16 to 32 mg/L (≈ 20.1 to 40.2 µM) | > 64 mg/L | 16 to 32 mg/L (≈ 20.1 to 40.2 µM)
O=C(NCCCN1CCN(C(=O)NC(C(=O)N[C@H]2Cc3ccc(F)c(C(=O)O)c3OB2O)c2cc(F)c(O)c(O)c2Cl)C1=O)c1ccc(O)cc1 (stereo partly drawn) [Example 280, (3R)-3-(2-(2-chloro-5-fluoro-3,4-dihydroxyphenyl)-2-(3-(3-(4-hydroxybenzamido)propyl)-2-oxoimidazolidine-1-carboxamido)acetamido)-7-fluoro-2-hydroxy-3,4-dihydro-2H-benzo[e][1,2]oxaborinine-8-carboxylic acid] | > 64 mg/L | 16 to 32 mg/L (≈ 21.9 to 43.7 µM) | > 64 mg/L | 16 to 32 mg/L (≈ 21.9 to 43.7 µM)
O=C(NCCCN1CCN(C(=O)NC(C(=O)N[C@H]2Cc3ccc(F)c(C(=O)O)c3OB2O)c2cc(F)c(O)c(O)c2Cl)C1=O)c1cccnc1 (stereo partly drawn) [Example 281, (3R)-3-(2-(2-chloro-5-fluoro-3,4-dihydroxyphenyl)-2-(3-(3-(nicotinamido)propyl)-2-oxoimidazolidine-1-carboxamido)acetamido)-7-fluoro-2-hydroxy-3,4-dihydro-2H-benzo[e][1,2]oxaborinine-8-carboxylic acid] | > 64 mg/L | > 64 mg/L | > 64 mg/L | 16 to 32 mg/L (≈ 22.3 to 44.6 µM)
O=C(NCCCN1CCN(C(=O)N[C@H](C(=O)N[C@H]2Cc3ccc(F)c(C(=O)O)c3OB2O)c2cc(F)c(O)c(O)c2Cl)C1=O)Nc1ccc(O)cc1 [Example 283, (R)-3-((S)-2-(2-chloro-5-fluoro-3,4-dihydroxyphenyl)-2-(3-(3-(3-(4-hydroxyphenyl)ureido)propyl)-2-oxoimidazolidine-1-carboxamido)acetamido)-7-fluoro-2-hydroxy-3,4-dihydro-2H-benzo[e][1,2]oxaborinine-8-carboxylic acid] | > 64 mg/L | > 64 mg/L | > 64 mg/L | > 64 mg/L
O=C(NCCCN1CCN(C(=O)N[C@@H](C(=O)N[C@H]2Cc3ccc(F)c(C(=O)O)c3OB2O)c2cc(F)c(O)c(O)c2Cl)C1=O)Nc1ccc(O)cc1 [Example 284, (R)-3-((R)-2-(2-chloro-5-fluoro-3,4-dihydroxyphenyl)-2-(3-(3-(3-(4-hydroxyphenyl)ureido)propyl)-2-oxoimidazolidine-1-carboxamido)acetamido)-7-fluoro-2-hydroxy-3,4-dihydro-2H-benzo[e][1,2]oxaborinine-8-carboxylic acid] | 16 to 32 mg/L (≈ 21.4 to 42.8 µM) | 4 to 8 mg/L (≈ 5.36 to 10.7 µM) | 16 to 32 mg/L (≈ 21.4 to 42.8 µM) | 4 to 8 mg/L (≈ 5.36 to 10.7 µM)
O=C(NCCCN1CCN(C(=O)NC(C(=O)N[C@H]2Cc3ccc(F)c(C(=O)O)c3OB2O)c2cc(F)c(O)c(O)c2Cl)C1=O)Nc1ccncc1 (stereo partly drawn) [Example 285, (3R)-3-(2-(2-chloro-5-fluoro-3,4-dihydroxyphenyl)-2-(2-oxo-3-(3-(3-(pyridin-4-yl)ureido)propyl)imidazolidine-1-carboxamido)acetamido)-7-fluoro-2-hydroxy-3,4-dihydro-2H-benzo[e][1,2]oxaborinine-8-carboxylic acid] | > 64 mg/L | > 64 mg/L | > 64 mg/L | > 64 mg/L

From patent publication US20240270762A1, “PENICILLIN-BINDING PROTEIN INHIBITORS” (priority 2021, published 2024)
